Data: patent publication US20140030234A1, “METHODS AND COMPOSITIONS FOR MODULATING ISLET BETA CELL DEVELOPMENT” (The Board of Trustees of the Leland Stanford Junior …, priority 2012, published 2014)

Columns and labels:
[1] = cited from earlier work
cultured human islets = cultured human islets exposed to FK506; cited from earlier work
cultured P10 islets = assay: qRT-PCR of mRNA in cultured P10 mouse islets exposed to glucokinase activator with or without FK506; assay type: cell-based
Procedure: (§1) Quantitative Real-time RT-PCR. Mouse islets were isolated by standard collagenase pancreatic perfusion as previously described (Heit et al. (2006a), supra). Total islet mRNA was then isolated using the RNeasy Microkit (QIAGEN) according to the manufacturer's instructions and RNA amount and purity were assessed by Nanodrop spectrophotometry. Any remaining contaminant DNA was removed by treating samples with 1 unit of RNAse-free DNAse (Fermentas). Next, cDNA was prepared from 750 ng of total islet RNA using the RETROscript kit (Ambion) and analyzed by quantitative real-time PCR (QPCR) using TaqMan Universal PCR Master Mix (ABI) and the ABI Prism 7500 detection system. For culture studies, islets harvested from mice of the indicated genotype were placed in standard media (RPMI 1640 with 4.5 mM glucose containing 10% FBS and 1% pen/strep) at 37° C. and 5% CO2. For some experiments islets were maintained in media containing vehicle (DMSO), glucokinase activator (GKA) R0-28-1675 (10 μM; Axon Ligands) and/or FK506 (10 μM; LC Laboratories) for 72 hours, with media changes every 24 hours. Additionally, β-cells from MIP-EGFP islets were isolated using fluorescence-activated cell sorting as previously described (Sugiyama, T., et al. (2007). Conserved markers of fetal pancreatic epithelium permit prospective isolation of islet progenitor cells by FACS. Proc. Natl. Acad. Sci. U.S.A 104, 175-180) and processed as above for analysis by QPCR. Each quantitative analysis was performed in triplicate and islets from 3 to 6 mice of each genotype were independently tested. Data are normalized to β-actin and results are expressed as the mean±S.E.M.

NFATc1 [2] = assay: ChIP of NFATc1 on isolated human islets; assay type: cell-based; set-up: NFATc1 association at CCNA2, CCND2 and FOXM1 promoter sites: dose or concentration left out as unconfirmed
Procedure: Islets from P20 C57/BL6 mice were isolated (as above) and fixed with 1% formaldehyde for 10 minutes at room temperature. Cross-linking was quenched by the addition of 0.125 M glycine and islets were washed in DPBS. ChIPs were then performed using the EZ-Magna ChIP™ G Chromatin Immunoprecipitation Kit (Millipore), following the manufacturer's protocol. Briefly, following cell and nuclear lysis, islets were sonicated to shear chromatin using a Bioruptor Sonicator (Diagenode) at maximum power; set for 15 seconds ON followed by 45 seconds OFF for a total time of 10 minutes. Precleared chromatin from 200-300 islets was used for each ChIP sample with incubation of 1 to 10 ug of the appropriate antibodies overnight at 4° C. Before IP, 1/10 of the extract was saved for use as the input. […] Resulting chromatin was then amplified using the GenomePlex WGA4 Whole Genome Amplification Kit (Sigma) and quantified using nanodrop. Equal amounts of chromatin DNA were then analyzed by quantitative PCR in the ABI Prism 7500 detection system (Applied Biosystems) using Power SYBR Green PCR Master Mix (Applied Biosystems). […]
Human islet studies. […] Islets were immunostained for insulin and BrdU and β-cell proliferation rate was determined by quantifying the percentage of insulin+ and BrdU^+ cells. A minimum of 50 islets and over 2000 β-cells were scored per condition.

neonatal human islets = assay: BrdU incorporation, β-cell proliferation in human islets; assay type: cell-based; conditions: islets of donor, FK506 vs vehicle (FIG. 6G-H)
Procedure: Human islet studies. Human islet samples were obtained from healthy, non-diabetic organ donors deceased due to acute traumatic or anoxic death and offered by NDR1 (National Diseases Resource Interchange). Islets were isolated by Bottino, R. at the University of Pittsburg, or by Bryant, S, and Thompson A. at the University of Alabama, Birmingham. […] After isolation, islets were shipped directly to our laboratory and were transferred to fresh islet culture medium (RPMI 1640 with 4.5 mM glucose containing 10% FBS and 1% pen/strep). As with mouse islets, islet samples were split and treated with either vehicle (DMSO) or FK506 ([…], LC laboratories) for 72 hours, with medium changes every 24 hours. Islets were then handpicked with dithizone staining and aliquots of 1000 IEQ were spun down and snap frozen for mRNA isolation or crosslinked as described above for ChIP studies. BrdU analysis was performed on the donor batch by treating islets with 50 uM BrdU and chasing for 24 hrs. Afterwards, islets were placed in 2% agarose and processed within paraffin blocks as described above. Islets were immunostained for insulin and BrdU and β-cell proliferation rate was determined by quantifying the percentage of insulin+ and BrdU^+ cells. A minimum of 50 islets and over 2000 β-cells were scored per condition.

NFATc1 [3] = assay: Chromatin immunoprecipitation (ChIP) of NFATc1 in mouse islets; assay type: cell-based
Procedure: Islets from P20 C57/BL6 mice were isolated (as above) and fixed with 1% formaldehyde for 10 minutes at room temperature. Cross-linking was quenched by the addition of 0.125 M glycine and islets were washed in DPBS. ChIPs were then performed using the EZ-Magna ChIP™ G Chromatin Immunoprecipitation Kit (Millipore), following the manufacturer's protocol. Briefly, following cell and nuclear lysis, islets were sonicated to shear chromatin using a Bioruptor Sonicator (Diagenode) at maximum power; set for 15 seconds ON followed by 45 seconds OFF for a total time of 10 minutes. Precleared chromatin from 200-300 islets was used for each ChIP sample with incubation of 1 to 10 ug of the appropriate antibodies overnight at 4° C. Before IP, 1/10 of the extract was saved for use as the input. Antibodies used for IP were mouse monoclonal anti-RNA Polymerase (1 ug, Millipore, 05-623B), rabbit anti-IgG (1 ug, Santa Cruz, sc-2027), and rabbit anti-NFATc1 (5 ug, Imgenex, #IMG-5101A). Resulting chromatin was then amplified using the GenomePlex WGA4 Whole Genome Amplification Kit (Sigma) and quantified using nanodrop. Equal amounts of chromatin DNA were then analyzed by quantitative PCR in the ABI Prism 7500 detection system (Applied Biosystems) using Power SYBR Green PCR Master Mix (Applied Biosystems). […]

[4] = system: islets isolated from WT, P20 mice; assay: qRT-PCR of mRNA in cultured neonatal mouse islets exposed to FK506; assay type: cell-based
Procedure: as §1

human islets = assay: qRT-PCR of mRNA in cultured human islets exposed to FK506; assay type: cell-based; conditions: 72 hr
Procedure: Quantitative Real-time RT-PCR. Mouse islets were isolated by standard collagenase pancreatic perfusion as previously described (Heit et al. (2006a), supra). Total islet mRNA was then isolated using the RNeasy Microkit (QIAGEN) according to the manufacturer's instructions and RNA amount and purity were assessed by Nanodrop spectrophotometry. Any remaining contaminant DNA was removed by treating samples with 1 unit of RNAse-free DNAse (Fermentas). Next, cDNA was prepared from 750 ng of total islet RNA using the RETROscript kit (Ambion) and analyzed by quantitative real-time PCR (QPCR) using TaqMan Universal PCR Master Mix (ABI) and the ABI Prism 7500 detection system. Human islet studies. Human islet samples were obtained from healthy, non-diabetic organ donors deceased due to acute traumatic or anoxic death and offered by NDR1 (National Diseases Resource Interchange). Islets were isolated by Bottino, R. at the University of Pittsburg, or by Bryant, S, and Thompson A. at the University of Alabama, Birmingham. […] After isolation, islets were shipped directly to our laboratory and were transferred to fresh islet culture medium (RPMI 1640 with 4.5 mM glucose containing 10% FBS and 1% pen/strep). As with mouse islets, islet samples were split and treated with either vehicle (DMSO) or FK506 ([…], LC laboratories) for 72 hours, with medium changes every 24 hours. Islets were then handpicked with dithizone staining and aliquots of 1000 IEQ were spun down and snap frozen for mRNA isolation or crosslinked as described above for ChIP studies. BrdU analysis was performed on the donor batch by treating islets with 50 uM BrdU and chasing for 24 hrs. Afterwards, islets were placed in 2% agarose and processed within paraffin blocks as described above. Islets were immunostained for insulin and BrdU and β-cell proliferation rate was determined by quantifying the percentage of insulin+ and BrdU^+ cells. A minimum of 50 islets and over 2000 β-cells were scored per condition.

[5] = WT P20 mouse islets, FK506 10 μM, 72 hr, vs vehicle (FIG. 3F)
[6] = FK506 10 μM, vs vehicle (FIG. 4A)

GKA induction of CcnA2, CcnD2 and FoxM1 mRNAs (cultured P10 islets; P10 islets, simultaneous exposure to FK506, 10 μM each, 72 hr (FIG. 7D)): attenuated or blocked
GKA elevation of Insulin 2 (Ins2) levels (cultured P10 islets; WT P10 islets, GKA+FK506, 10 μM each, 72 hr (FIG. 7B)): blunted
GKA induction of NFATc1 mRNA (cultured P10 islets; WT P10 islets, simultaneous exposure to FK506 and GKA, 10 μM each, 72 hr (FIG. 7A)): blocked
GKA increase of ChgA, ChgB, IAPP, and IA2 mRNAs (cultured P10 islets; neonatal P10 islets, GKA+FK506, 10 μM each, 72 hr (FIG. 7C)): eliminated or significantly reduced
NFATc1 binding at CHGA, CHGB, IAPP, and IA2 sites (NFATc1 [2]; human islets, FK506 10 μM, 24 hr (FIG. 4B)): consistently reduced
Compound: C=CC[C@@H]1/C=C(\C)C[C@H](C)C[C@H](OC)[C@H]2O[C@@](O)(C(=O)C(=O)N3CCCC[C@H]3C(=O)O[C@H](/C(C)=C/[C@@H]3CC[C@@H](O)[C@H](OC)C3)[C@H](C)[C@@H](O)CC1=O)[C@H](C)C[C@@H]2OC [FK506, tacrolimus]
incidence of diabetes mellitus ([1]; patients administered calcineurin inhibitors): high incidence
patients developing diabetes mellitus ([1]; patients requiring immunosuppression with calcineurin inhibitors): 10-30%
DCG numbers (cultured human islets): reduced
insulin secretion (cultured human islets): impaired
NFATc1 association at CCNA2, CCND2 and FOXM1 promoter sites (NFATc1 [2]; neonatal human islets): FK506-sensitive
reduction of β-cell BrdU incorporation (neonatal human islets): ~3 fold
NFATc1 binding at ChgA, ChgB and IA2 promoters (NFATc1 [3]; WT P20 mouse islets, FK506 24 hr (FIG. 3K)): reduced to levels comparable to IgG controls
NFATc1 binding at CcnD2, FoxM1 and CcnA2 promoter sites (NFATc1 [3]; WT neonatal mouse islets, FK506 24 hr (FIG. 5J)): consistently reduced NFATc1 binding to background levels
levels of Hnf4a mRNA [4, 5]: remained unchanged
levels of Ins1, Ins2, ChgA, ChgB, IAPP and IA2 mRNA [4, 5]: significantly reduced
levels of CcnA2, CcnD2 and FoxM1 mRNAs ([4]; neonatal WT mouse islets, FK506, 72 hr, vs vehicle (FIG. 5E)): significantly decreased
CCNA2, CCND2 and FOXM1 mRNA levels (human islets; vs vehicle (FIG. 6F)): significantly decreased
islet levels of mRNA encoding HNF4a (human islets; [6]): unaffected
mRNAs encoding INS, CHGA, CHGB, IAPP, and IA2 (human islets; [6]): reduction
